Measurements: US8936916B2, “Polypeptides for microbial detection” (3M Innovative Properties Company, priority 2008, dated 2015)
Ends that are not written are not given here.

Key:
[1] = as the pH drops from 7; cited from earlier work
[2] = Permeabilization of DPPC liposomes containing glucose oxidase (glucose oxidase/HRP colour reaction, scanned image); format: biochemical; conditions: for Relative glucose oxidase activity (integrated digital values): DPPC; for Color apparent in the well: 30 minutes at room temperature
Description: (§1) The formation of a pore allows glucose into the liposome where it reacts with glucose oxidase to generate hydrogen peroxide. The hydrogen peroxide reacts with HRP, 4-AAP and TOOS (all outside the liposome) to generate an intense purple color.
(§2) The ability of the phosphorylated phylloxin to open liposomes in the presence of phosphatase was tested by preparing a developing solution of 0.5 mg/mL TOOS (3-(N-Ethyl-3-methylanilino)-2-hydroxypropanesulfonic acid sodium salt) (Sigma-Aldrich, St. Louis, Mo.), 1.0 mg/mL 4-AAP (4-amino-antipyrene) (Sigma-Aldrich), 12.5 mg/mL glucose and 0.0001 mg/mL HRP (horseradish peroxidase) (Pierce Biotechnology, Rockford, Ill.) in 50 mM TES.
(§3) 200 μL of this solution was placed in one well of 96-well plate containing 10 μL (0.004 mg/mL) of a DPPC liposome suspension. A second well was prepared similarly and 10 μL (0.3 mg/mL) of phylloxin solution in TES was also added. A third well was prepared similar to the second well. Alkaline phosphatase (10 μL at 2.5 mg/mL in TES) was added to the third well to a final concentration of 0.11 mg/mL. A similar set of wells was prepared with DOPC/cholesterol liposomes at the same concentration.
(§4) A weaker color was apparent in the well with DPPC liposomes, phylloxin and phosphatase, and weaker again in the well with DPPC liposomes and phylloxin. The remaining wells were essentially colorless. The image was recorded on an HP scanner and analyzed using an AlphaImager (Alpha Innotech, San Leandro, Calif.). The integrated digital values at 30 minutes are shown in Table 1 below, and at two hours in Table 2.

[3] = Permeabilization of DOPC/cholesterol liposomes containing glucose oxidase (glucose oxidase/HRP colour reaction, scanned image); format: biochemical; conditions: for Relative glucose oxidase activity (integrated digital values): DOPC/Cholesterol
Description: as §1, §2, §3, §4

[4] = Permeabilization of DPPC liposomes containing glucose oxidase by phosphorylated dermatoxin (absorbance at 538 nm); format: biochemical; conditions: Positive Control
Description: DPPC liposomes containing 5 mg/mL glucose oxidase were prepared as described in Example 2. Glucose oxidase activity was measured in a coupled enzyme reaction with horseradish peroxidase as described in Example 2. The various solutions were quickly added to each of the wells of a microplate using a multichannel pipette and the reactions were started (at T=0 hours) with the addition to the wells of a solution containing glucose and 4-AAP.
The ability of the phosphorylated dermatoxin to open liposomes in the presence of phosphatase was tested by preparing a developing solution as described in Example 2. One hundred-fifty microliters of the developing solution was placed in each well of a 96-well microplate. To each column in the plate was added 20 μL of TES buffer containing one of the following concentrations of unpurified dermatoxin: 3.3 mg/mL, 3.3×10^−1 mg/mL, 3.3×10^−2 mg/mL, 3.3×10^−3 mg/mL, 3.3×10^−4 mg/mL, 3.3×10^−5 mg/mL, 3.3×10^−6 mg/mL, or 3.3×10^−7 mg/mL. Negative control wells contained TES buffer with no dermatoxin. Positive control wells buffer contained TES buffer with Triton X-100. Ten-microliter aliquots of the following concentrations of DPPC liposomes (containing 5 mg/mL glucose oxidase) were added to wells in duplicate rows: 0.1 mg lipid/mL, 0.02 mg lipid/mL, 0.004 mg lipid/mL, or plain buffer. To one of the duplicate rows was added 20 μL of 2.5 mg/mL alkaline phosphatase in TES. The other duplicate row received 20 μL of TES buffer. Thus the final dermatoxin concentration in the well varied from […], and the final lipid concentration in the well ranged from 0.005 mg lipid/mL to 2.0×10^−4 mg lipid/mL.
The absorbance was recorded at 538 nm on a SpectraMax M5 plate reader (Molecular Devices, Sunnyvale, Calif.) after two hours incubation at room temperature, and also after overnight incubation (approximately 18 hours). Since the absorbance of several wells was saturated, the overnight samples were diluted 1:10 with 50 mmol TES and the absorbance of the diluted samples was measured.

[5] = 2-hour incubation, liposome + peptide
[6] = 2-hour incubation, liposome + peptide + phosphatase
[7] = 30-minute incubation, liposome + peptide
[8] = 30-minute incubation, liposome + peptide + phosphatase

Substance: GALA
- pH at which the cytolytic peptide becomes activated [1]: about 5.0

Substance: GWMSKIASGIGTFLSGMQQ (GWMSKIASGIGTFLSGMQQ-NH2; not fully specified (residues 4, 8, 12, 15, N-terminus); also: phosphorylated) [Tetraphosphorylated Phylloxin, fully phosphorylated phylloxin made by Fmoc synthesis on Rink amide resin, HPLC purified]
- Relative glucose oxidase activity (integrated digital values) [2, 5]: 173670
- Relative glucose oxidase activity (integrated digital values) [2, 6]: 217620
- Relative glucose oxidase activity (integrated digital values) [2, 7]: 84996
- Relative glucose oxidase activity (integrated digital values) [2, 8]: 97588
- Color apparent in the well ([2]; DPPC liposomes and phylloxin, no phosphatase): weaker again
- Color apparent in the well ([2]; DPPC liposomes, phylloxin and phosphatase): weaker color
- Phosphatase-dependent opening of liposomes ([2]; DPPC liposomes, with versus without alkaline phosphatase): still an effect, but it is not so pronounced
- Relative glucose oxidase activity (integrated digital values) [3, 5]: 128550
- Relative glucose oxidase activity (integrated digital values) [3, 6]: 299950
- Relative glucose oxidase activity (integrated digital values) [3, 7]: 67680
- Relative glucose oxidase activity (integrated digital values) [3, 8]: 184416
- Color apparent in the well ([3]; 30 minutes at room temperature, DOPC/cholesterol liposomes, phylloxin and phosphatase): dark purple color
- Opening of liposomes ([3]; DOPC/cholesterol liposomes, in the absence of alkaline phosphatase): little effect
- Opening of liposomes ([3]; DOPC/cholesterol liposomes, in the presence of alkaline phosphatase): rapidly opens liposomes

Substance: Triton X-100 [Positive Control, reference compound]
- Absorbance at 538 nm (cytolytic peptide activity) ([4]; 2 hrs, lipid conc. 0, with phosphatase): 2.272 absorbance units
- Absorbance at 538 nm (cytolytic peptide activity) ([4]; 2 hrs, lipid conc. 0, without phosphatase): 0.123 absorbance units
- Absorbance at 538 nm (cytolytic peptide activity) ([4]; 2 hrs, lipid conc. 0.004, with phosphatase): 0.132 absorbance units
- Absorbance at 538 nm (cytolytic peptide activity) ([4]; 2 hrs, lipid conc. 0.004, without phosphatase): 0.210 absorbance units
- Absorbance at 538 nm (cytolytic peptide activity) ([4]; 2 hrs, lipid conc. 0.02, with phosphatase): 0.296 absorbance units
- Absorbance at 538 nm (cytolytic peptide activity) ([4]; 2 hrs, lipid conc. 0.02, without phosphatase): 0.602 absorbance units
- Absorbance at 538 nm (cytolytic peptide activity) ([4]; 2 hrs, lipid conc. 0.1, with phosphatase): 0.557 absorbance units
- Absorbance at 538 nm (cytolytic peptide activity) ([4]; 2 hrs, lipid conc. 0.1, without phosphatase): 2.220 absorbance units
- Absorbance at 538 nm (cytolytic peptide activity) ([4]; 18 hrs (d), 1:10-diluted sample, lipid conc. 0, with phosphatase): 1.064 absorbance units
- Absorbance at 538 nm (cytolytic peptide activity) ([4]; 18 hrs (d), 1:10-diluted sample, lipid conc. 0, without phosphatase): 0.055 absorbance units
- Absorbance at 538 nm (cytolytic peptide activity) ([4]; 18 hrs (d), 1:10-diluted sample, lipid conc. 0.004, with phosphatase): 0.056 absorbance units
- Absorbance at 538 nm (cytolytic peptide activity) ([4]; 18 hrs (d), 1:10-diluted sample, lipid conc. 0.004, without phosphatase): 0.097 absorbance units
- Absorbance at 538 nm (cytolytic peptide activity) ([4]; 18 hrs (d), 1:10-diluted sample, lipid conc. 0.02, with phosphatase): 0.094 absorbance units
- Absorbance at 538 nm (cytolytic peptide activity) ([4]; 18 hrs (d), 1:10-diluted sample, lipid conc. 0.02, without phosphatase): 0.274 absorbance units
- Absorbance at 538 nm (cytolytic peptide activity) ([4]; 18 hrs (d), 1:10-diluted sample, lipid conc. 0.1, with phosphatase): 0.252 absorbance units
- Absorbance at 538 nm (cytolytic peptide activity) ([4]; 18 hrs (d), 1:10-diluted sample, lipid conc. 0.1, without phosphatase): 1.018 absorbance units
- Absorbance at 538 nm (cytolytic peptide activity) ([4]; 18 hrs, lipid conc. 0, with phosphatase): 4.000 absorbance units
- Absorbance at 538 nm (cytolytic peptide activity) ([4]; 18 hrs, lipid conc. 0, without phosphatase): 0.158 absorbance units
- Absorbance at 538 nm (cytolytic peptide activity) ([4]; 18 hrs, lipid conc. 0.004, with phosphatase): 0.158 absorbance units
- Absorbance at 538 nm (cytolytic peptide activity) ([4]; 18 hrs, lipid conc. 0.004, without phosphatase): 0.524 absorbance units
- Absorbance at 538 nm (cytolytic peptide activity) ([4]; 18 hrs, lipid conc. 0.02, with phosphatase): 0.524 absorbance units
- Absorbance at 538 nm (cytolytic peptide activity) ([4]; 18 hrs, lipid conc. 0.02, without phosphatase): 2.043 absorbance units
- Absorbance at 538 nm (cytolytic peptide activity) ([4]; 18 hrs, lipid conc. 0.1, with phosphatase): 2.043 absorbance units
